Test system: 233499-124-R-J3-PDC spheroids with HUVEC/MSC, viability
Test: Anticancer human tumor 233499-124-R-J3-PDC patient-derived colon adenocarcinoma cell line growth inhibition [PI3K]
Details: for IC50: curve of first compound; for viability, T/C: stronger effect = lower value
Outline: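 Multi-cell spheroids combine tumor cells with HUVEC and human MSCs, treated with targeted agents alone or with inavolisib, alpelisib, duvelisib or copanlisib. Concentrations fall in half-log steps from at or near clinical Cmax, or from 10 microM where Cmax is unknown; viability read-out.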

[1] = second compound 0.0316 µM, first compound 0.0316 µM
[2] = second compound 0.0316 µM, first compound 0.1 µM
[3] = second compound 0.1 µM, first compound 0.0316 µM
[4] = second compound 0.1 µM, first compound 0.1 µM
[5] = second compound 0.316 µM, first compound 0.0316 µM
[6] = second compound 0.316 µM, first compound 0.1 µM
[7] = second compound 1 µM, first compound 0.0316 µM
[8] = second compound 1 µM, first compound 0.1 µM
[9] = second compound 3.16 µM, first compound 0.0316 µM
[10] = second compound 3.16 µM, first compound 0.1 µM
[11] = second compound 10 µM, first compound 0.0316 µM
[12] = second compound 10 µM, first compound 0.1 µM
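Note: spheroids exposed to agents for seven days before readout.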
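Throughout, for viability, T/C: percent viability relative to DMSO vehicle control taken as 100%.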

## CC(C)n1nc(-c2ccc3oc(N)nc3c2)c2c(N)ncnc21 + Cc1nc(NC(=O)N2CCCC2C(N)=O)sc1-c1ccnc(C(C)(C)C(F)(F)F)c1
Second compound 0.0316 µM
  IC50: > 100 nM
Second compound 0.1 µM
  IC50: 85.9 nM
Second compound 0.316 µM
  IC50: > 100 nM
Second compound 1 µM
  IC50: 37.5 nM
Second compound 3.16 µM
  IC50: 5.81 nM
Second compound 10 µM
  IC50: < 0.316 nM
Second compound 0.0316 µM, first compound 0.000316 µM
  viability, T/C: 103%
Second compound 0.0316 µM, first compound 0.001 µM
  viability, T/C: 90.9%
Second compound 0.0316 µM, first compound 0.00316 µM
  viability, T/C: 103%
Second compound 0.0316 µM, first compound 0.01 µM
  viability, T/C: 64.7%
[1]
  viability, T/C: 92.6%
[2]
  viability, T/C: 55.2%
Second compound 0.1 µM, first compound 0.000316 µM
  viability, T/C: 99.4%
Second compound 0.1 µM, first compound 0.001 µM
  viability, T/C: 92.4%
Second compound 0.1 µM, first compound 0.00316 µM
  viability, T/C: 54.8%
Second compound 0.1 µM, first compound 0.01 µM
  viability, T/C: 86%
[3]
  viability, T/C: 84%
[4]
  viability, T/C: 45.1%
Second compound 0.316 µM, first compound 0.000316 µM
  viability, T/C: 89.9%
Second compound 0.316 µM, first compound 0.001 µM
  viability, T/C: 81%
Second compound 0.316 µM, first compound 0.00316 µM
  viability, T/C: 90.1%
Second compound 0.316 µM, first compound 0.01 µM
  viability, T/C: 79.1%
[5]
  viability, T/C: 67.7%
[6]
  viability, T/C: 53.9%
Second compound 1 µM, first compound 0.000316 µM
  viability, T/C: 68%
Second compound 1 µM, first compound 0.001 µM
  viability, T/C: 71.8%
Second compound 1 µM, first compound 0.00316 µM
  viability, T/C: 82.1%
Second compound 1 µM, first compound 0.01 µM
  viability, T/C: 62.4%
[7]
  viability, T/C: 55.3%
[8]
  viability, T/C: 25.2%
Second compound 3.16 µM, first compound 0.000316 µM
  viability, T/C: 61.2%
Second compound 3.16 µM, first compound 0.001 µM
  viability, T/C: 50.6%
Second compound 3.16 µM, first compound 0.00316 µM
  viability, T/C: 73%
Second compound 3.16 µM, first compound 0.01 µM
  viability, T/C: 39.7%
[9]
  viability, T/C: 43.7%
[10]
  viability, T/C: 30.7%
Second compound 10 µM, first compound 0.000316 µM
  viability, T/C: 43.7%
Second compound 10 µM, first compound 0.001 µM
  viability, T/C: 26.4%
Second compound 10 µM, first compound 0.00316 µM
  viability, T/C: 29.7%
Second compound 10 µM, first compound 0.01 µM
  viability, T/C: 26.3%
[11]
  viability, T/C: 24.5%
[12]
  viability, T/C: 6.69%

## CC1(C)CCC(CN2CCN(c3ccc(C(=O)NS(=O)(=O)c4ccc(NCC5CCOCC5)c([N+](=O)[O-])c4)c(Oc4cnc5[nH]ccc5c4)c3)CC2)=C(c2ccc(Cl)cc2)C1 + Cc1nc(NC(=O)N2CCCC2C(N)=O)sc1-c1ccnc(C(C)(C)C(F)(F)F)c1
Second compound 0.0316 µM
  IC50: 6180 nM
Second compound 0.1 µM
  IC50: 5470 nM
Second compound 0.316 µM
  IC50: 5380 nM
Second compound 1 µM
  IC50: 4330 nM
Second compound 3.16 µM
  IC50: 2610 nM
Second compound 10 µM
  IC50: < 31.6 nM
[1]
  viability, T/C: 110%
[2]
  viability, T/C: 104%
Second compound 0.0316 µM, first compound 0.316 µM
  viability, T/C: 107%
Second compound 0.0316 µM, first compound 1 µM
  viability, T/C: 115%
Second compound 0.0316 µM, first compound 3.16 µM
  viability, T/C: 106%
Second compound 0.0316 µM, first compound 10 µM
  viability, T/C: 10.1%
[3]
  viability, T/C: 112%
[4]
  viability, T/C: 98.1%
Second compound 0.1 µM, first compound 0.316 µM
  viability, T/C: 66.5%
Second compound 0.1 µM, first compound 1 µM
  viability, T/C: 109%
Second compound 0.1 µM, first compound 3.16 µM
  viability, T/C: 93%
Second compound 0.1 µM, first compound 10 µM
  viability, T/C: 2.57%
[5]
  viability, T/C: 99.9%
[6]
  viability, T/C: 89.3%
Second compound 0.316 µM, first compound 0.316 µM
  viability, T/C: 76%
Second compound 0.316 µM, first compound 1 µM
  viability, T/C: 88.3%
Second compound 0.316 µM, first compound 3.16 µM
  viability, T/C: 88.9%
Second compound 0.316 µM, first compound 10 µM
  viability, T/C: 5.24%
[7]
  viability, T/C: 97.6%
[8]
  viability, T/C: 73.7%
Second compound 1 µM, first compound 0.316 µM
  viability, T/C: 80.8%
Second compound 1 µM, first compound 1 µM
  viability, T/C: 82.8%
Second compound 1 µM, first compound 3.16 µM
  viability, T/C: 67%
Second compound 1 µM, first compound 10 µM
  viability, T/C: 4.35%
[9]
  viability, T/C: 61.9%
[10]
  viability, T/C: 51.9%
Second compound 3.16 µM, first compound 0.316 µM
  viability, T/C: 61.8%
Second compound 3.16 µM, first compound 1 µM
  viability, T/C: 62.4%
Second compound 3.16 µM, first compound 3.16 µM
  viability, T/C: 48.1%
Second compound 3.16 µM, first compound 10 µM
  viability, T/C: 1.21%
[11]
  viability, T/C: 32.1%
[12]
  viability, T/C: 26.4%
Second compound 10 µM, first compound 0.316 µM
  viability, T/C: 22.6%
Second compound 10 µM, first compound 1 µM
  viability, T/C: 31.1%
Second compound 10 µM, first compound 3.16 µM
  viability, T/C: 9.66%
Second compound 10 µM, first compound 10 µM
  viability, T/C: 2.29%

Source: PubChem BioAssay AID1963984 (Molecular Pharmacology Branch, DTP, NCI, 2024)
